ChEMBL document CHEMBL3872216, “Modulatory effects of silibinin in various cell signaling pathways against liver disorders and cancer - A comprehensive review” (Eur J Med Chem, 2016)

Assays:
[1] = Cytotoxicity against human T47D cells assessed as reduction in cell viability after 24 hrs by MTT assay; format: functional, cell-based
Cytochrome P450 2C9 = Cytochrome P450 2C9 (Homo sapiens, UniProt P11712); test: Inhibition of CYP2C9 in human liver microsomes using (S)-warfarin as substrate at after 30 mins by LC-MS/MS analysis; format: ADME
[2] = Cytotoxicity against human LoVo cells assessed as reduction in cell growth at 50 to 200 uM after 24 hrs by trypan blue exclusion assay; format: functional
[3] = Cytotoxicity against human T47D cells assessed as reduction in cell viability after 24 hrs in presence of curcumin by MTT assay; format: functional, cell-based
[4] = Downregulation of telomerase expression in human T47D cells after 72 hrs in presence of curcumin by SYBR green-dye based RT-PCR analysis; format: functional, cell-based
[5] = Antitumor activity against humanPC3 cells xenografted in nude mouse assessed as tumor growth inhibition at 100 mg/kg, po administered via gavage for 5 days per week for 7 weeks relative to control; format: functional; conditions: Homo sapiens, PC-3, po; read-out: TGI
[6] = Cytotoxicity against human DU145 cells assessed as cell growth inhibition at 100 uM after 48 hrs in presence of 25 nM doxorubicin by manual cell counting; format: functional, DU-145
[7] = Cytotoxicity against human LNCAP cells assessed as cell growth inhibition at 25 uM after 48 hrs in presence of 15 nM doxorubicin by manual cell counting; format: functional
Hepatitis C virus = test: Antiviral activity against Hepatitis C virus in liver transplanted patient with established HCV recurrence assessed as reduction in viral load at 20 mg/kg, iv administered for 14 days; format: functional, Hepacivirus hominis
[8] = Cytotoxicity against human DU145 cells assessed as cell growth inhibition at 200 uM after 48 hrs by MTT assay relative to control; format: functional; conditions: DU-145, 48 h, read-out: GI
[9] = Cytotoxicity against human LoVo cells assessed as reduction in cell growth after 24 hrs by trypan blue exclusion assay; format: functional, cell-based
[10] = Antitumor activity against wild type B6/129PF2 mouse lung tumor assessed reduction in urethane-induced tumor growth at 742 mg/kg, po administered via gavage for 5 days per week for 18 weeks starting from 8 weeks after urethane injection measured 25 weeks after first urethane injection; format: functional; conditions: B6/129PF2, po, read-out: TGI
[11] = Antitumor activity against human HT-29 cells xenografted in nude mouse assessed as tumor growth inhibition at 200 mg/kg, po administered 5 days per week for 32 days; format: functional; conditions: HT-29, po, read-out: TGI
[12] = Cytotoxicity against human ARCaPM cells assessed as cell growth inhibition at 200 uM after 48 hrs by MTT assay relative to control; format: functional; conditions: read-out: GI
[13] = Cytotoxicity against human PC3 cells assessed as cell growth inhibition at 200 uM after 48 hrs by MTT assay relative to control; format: functional; conditions: PC-3, 48 h, read-out: GI
[14] = Cytotoxicity against human LNCAP cells assessed as cell growth inhibition at 200 uM after 48 hrs by MTT assay relative to control; format: functional; conditions: read-out: GI

Sequence of Cytochrome P450 2C9 (P11712 whole entry): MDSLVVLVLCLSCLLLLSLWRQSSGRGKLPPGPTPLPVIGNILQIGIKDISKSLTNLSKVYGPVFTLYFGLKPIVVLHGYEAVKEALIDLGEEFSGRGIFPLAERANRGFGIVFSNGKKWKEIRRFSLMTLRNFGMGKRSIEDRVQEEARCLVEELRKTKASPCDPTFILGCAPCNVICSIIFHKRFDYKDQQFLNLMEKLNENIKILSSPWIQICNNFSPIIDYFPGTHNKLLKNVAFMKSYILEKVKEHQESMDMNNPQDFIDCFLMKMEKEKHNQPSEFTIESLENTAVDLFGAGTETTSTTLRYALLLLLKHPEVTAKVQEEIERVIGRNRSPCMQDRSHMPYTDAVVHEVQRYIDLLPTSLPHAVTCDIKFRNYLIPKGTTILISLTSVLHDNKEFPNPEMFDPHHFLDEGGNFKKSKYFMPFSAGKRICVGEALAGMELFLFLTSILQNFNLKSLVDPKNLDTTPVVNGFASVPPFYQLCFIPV

IC50 (Cytochrome P450 2C9) [µM]	IC50 [4] [µM]	SMILES	IC50 [1] [µM]	growth inhibition (GI) [2]	IC50 [3] [µM]	inhibition in vivo at 100 mg/kg [5] [%]	growth inhibition (GI) [6]	growth inhibition (GI) [7]	Activity (Hepatitis C virus)	inhibition of growth at 200 µM [8] [%]	IC50 [9] [µM]	inhibition in vivo at 742 mg/kg [10] [%]	inhibition in vivo at 200 mg/kg [11] [%]	inhibition of growth at 200 µM [12] [%]	inhibition of growth at 200 µM [13] [%]	inhibition of growth at 200 µM [14] [%]
		COc1cc(/C=C/C(=O)CC(=O)/C=C/c2ccc(O)c(OC)c2)ccc1O [CURCUMIN]	30													
18	12	COc1cc([C@H]2Oc3cc([C@H]4Oc5cc(O)cc(O)c5C(=O)[C@@H]4O)ccc3O[C@@H]2CO)ccc1O [SILYBIN A]	110	30 - 49%	20	40	74 - 87%	62 - 69%	2.3	73.8	50 to 200	71	≤ 48	18.5	60	48.7
